Legend:
haldol-induced catalepsy = assay: Haldol-induced catalepsy model of Parkinson's disease, bar test; assay type: in vivo; details: mice
Procedure: The compounds of the invention were evaluated in a model of Parkinson's disease, the haldol-induced catalepsy model in mice. Catalepsy was assessed using the bar test in mice submitted to acute administration of the dopamine D2 receptor antagonist haloperidol (1mg/kg, intraperitoneally or ip). Mice (male RjOrl: Swiss mice, weighing 30 - 35 g at the beginning of the experiment) placed in group of 5 in Plexiglas cages, were injected with haloperidol (1 mg/kg ip). […] The catalepsy response of one mouse was measured as the time the animal maintained an imposed posture with both forelimbs placed on a horizontal 0.9cm-diameter wire bar suspended 4cm above a platform. The end point of catalepsy was considered to occur when both forelimbs were removed from the bar, the mouse climbed onto the bar or if the animal moved its head in an exploratory manner. A cutoff time of 180 seconds was applied. The degree of catalepsy was scored 60 minutes after haloperidol administration and continued at 30 or 60 minutes intervals for a total of 240-300 minutes. Between measurements, the animals were returned to their home cages. This procedure was adapted from the literature: (e.g. Pires et al., Braz J Med and Biol Res 38, 1867-1872, 2005; Shiozaki et al., Psychopharmacology 147, 90-95, 1999). Parent compound and corresponding vehicle, given either intraperitoneally (ip) or orally (po), were administered 30 minutes after haldol administration. Prodrugs and corresponding vehicle were injected 4h before haldol administration. Prodrug dose is expressed in equivalent of parent compound.
Data analysis: the figures 2 and 3 show the mean time of latency spent on the bar for each group of animals. At each time-point, the anti-cataleptic effects of parent compound and prodrugs were compared to vehicle-treated groups using 1-factor ANOVA test followed by the Dunnett's test. Datapoints marked with "*" in figures 3 or 4 indicates p<0.05; "**" indicates p<0.01.

[1] = In vivo pharmacokinetic evaluation (ACPT-I in plasma, LC/MS/MS); details: rat, po, 30 mg/kg
[2] = 100mg/kg orally (dose in equivalent of parent compound), given 4h before haldol (1 mg/kg ip)

Structure (SMILES) | anticataleptic activity (haldol-induced catalepsy; [2]) | anticataleptic activity (haldol-induced catalepsy; 30mg/kg ip, given 30 minutes after haldol (1 mg/kg ip)) | anticataleptic activity (haldol-induced catalepsy; 100mg/kg oral administration, given 30 minutes after haldol (1 mg/kg ip)) | bioavailability [1] [%]
C[C@H](N)C(=O)N[C@@]1(C(=O)O)C[C@H](C(=O)O)[C@H](C(=O)O)C1 [Example 3, (1S, 3R, 4S)-1-{[(2'S)-'2-aminopropanoyl]amino}cyclopentane-1,3,4-tricarboxylic acid] | significantly reduced the haldol-induced cataleptic response |  |  | 
N[C@@]1(C(=O)O)C[C@H](C(=O)O)[C@H](C(=O)O)C1 [ACPT-I, (1S, 3R, 4S) -1-aminocyclopentane-1,3,4-tricarboxylic acid] |  | significantly reduced catalepsy | no anticataleptic activity | 1.14
CC(C)C[C@H](N)C(=O)N[C@@]1(C(=O)O)C[C@H](C(=O)O)[C@H](C(=O)O)C1 [Example 1, (1S, 3R, 4S)-1-{[(2'S)-2'-amino-4'-methylpentanoyl]amino}cyclopentane-1,3,4-tricarboxylic acid] | significantly reduced the haldol-induced cataleptic response |  |  | 

Source: patent EP1992637A1, “1-Aminocyclopentane-1,3,4- tricarboxylic acids derivatives” (priority 2007, dated 2008)
